Test results as given in patent US20250214977A1, “STAT6 INHIBITORS AND USES THEREOF” (Kymera Therapeutics, Inc., priority 2024, published 2025).

tested on: Phosphorylation of STAT6 in human PBMC (CD19+ B cells); test: Phosphorylated STAT6 (pSTAT6) flow cytometry assay in human PBMC, IL-4 stimulated; type: cell-based; conditions: compound 1 hour, 1 ng/ml IL-4 for 15 minutes, read-out: STAT6 IL4 pSTAT6 assay in PBMC: Average IC50
Procedure, shortened: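 Human PBMC preincubated 1 h at 37 °C with compound (9-point 1:3 series, top up to 30 μM), then stimulated with 1 ng/ml IL-4 for 15 min. After fixation, methanol permeabilization and staining, pSTAT6 quantified in CD19+ B cells by flow cytometry; four-parameter fit of inhibition.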

CN(C)C(=O)c1cc2ccc(C3=CCCN(C(=O)CC(C)(C)NCc4ccccc4)C3)cc2[nH]1 [Example I-135] and CN(C)C(=O)c1cc2ccc(C3=CCCN(C(=O)C(CO)c4ccccc4)C3)cc2[nH]1 (stereo not drawn) [Example I-159] cannot be ordered by IC50: > 100 µM for the first, > 100 µM for the second.

COc1ccc(Cn2cc(CC(=O)N3CCC=C(c4ccc5cc(C(=O)N(C)C)[nH]c5c4)C3)cn2)cc1 [Example I-136] and COC(=O)c1ccc(OCC(=O)N2CCC=C(c3ccc4cc(C(=O)N(C)C)[nH]c4c3)C2)cc1 [Example I-142] cannot be ordered by IC50: > 100 µM for the first, > 100 µM for the second.

CN(C)C(=O)c1cc2ccc(C3=CCCN(C(=O)c4cccnc4-c4ccc(F)c(F)c4)C3)cc2[nH]1 [Example I-137] and CN(C)C(=O)c1cc2ccc(C3=CCCN(C(=O)c4cc(C#N)ccc4Br)C3)cc2[nH]1 [Example I-144] cannot be ordered by IC50: > 100 µM for the first, > 100 µM for the second.

Cc1c(S(C)(=O)=O)ccc(C(=O)N2CCC=C(c3ccc4cc(C(=O)N(C)C)[nH]c4c3)C2)c1Cl [Example I-138] and CN(C)C(=O)c1cc2ccc(C3=CCCN(C(=O)c4ccnnc4O)C3)cc2[nH]1 [Example I-146] cannot be ordered by IC50: > 100 µM for the first, > 100 µM for the second.

CN(C)C(=O)c1cc2ccc(C3=CCCN(C(=O)C4CCN(S(C)(=O)=O)CC4)C3)cc2[nH]1 [Example I-140] and CN(C)C(=O)c1cc2ccc(C3=CCCN(C(=O)C4CS(=O)(=O)C4)C3)cc2[nH]1 [Example I-163] cannot be ordered by IC50: > 100 µM for the first, > 100 µM for the second.

CN(C)C(=O)c1cc2ccc(C3=CCCN(C(=O)c4snnc4C4CC4)C3)cc2[nH]1 [Example I-143] and COCc1oncc1C(=O)N1CCC=C(c2ccc3cc(C(=O)N(C)C)[nH]c3c2)C1 [Example I-145] cannot be ordered by IC50: > 100 µM for the first, > 100 µM for the second.

CN(C)C(=O)c1cc2cc(C3=CCCN(C(=O)CCc4nncs4)C3)ccc2o1 [Example I-147] and CN(C)C(=O)c1cc2cc(C3=CCCN(C(=O)CCc4ncns4)C3)ccc2o1 [Example I-165] cannot be ordered by IC50: > 100 µM for the first, > 100 µM for the second.

First: CNCc1cccc2c1CC(C(=O)N1CCC=C(c3ccc4oc(C(=O)N(C)C)cc4c3)C1)N(C=O)C2 (stereo not drawn) [Example I-148]
Second: CN(C)C(=O)c1cc2cc(C3=CCCN(C(=O)C4Cc5c(cccc5OCCN)CN4C=O)C3)ccc2o1 (stereo not drawn) [Example I-171]
The IC50 of the first is higher: > 100 µM for the first, 10 to 100 µM for the second.

COC(=O)C1CCC(c2ccc3oc(C(=O)N(C)C)cc3c2)CN1C(=O)CCn1ccnn1 (stereo not drawn) [Example I-149] and CN(C)C(=O)c1cc2cc(C3CCC(CO)N(C(=O)CCn4ccnn4)C3)ccc2o1 (stereo not drawn) [Example I-154] cannot be ordered by IC50: > 100 µM for the first, > 100 µM for the second.

COC(=O)C1CCC(c2ccc3oc(C(=O)N(C)C)cc3c2)CN1C(=O)CCn1ccnn1 (stereo not drawn) [Example I-150] and CN(C)C(=O)c1cc2cc(C3CCC(CO)N(C(=O)CCn4ccnn4)C3)ccc2o1 (stereo not drawn) [Example I-155] cannot be ordered by IC50: > 100 µM for the first, > 100 µM for the second.

CCNC(Cn1ccnn1)C(=O)N1CCC=C(c2ccc3oc(C(=O)N(C)C)cc3c2)C1 (stereo not drawn) [Example I-153] and CCN[C@H](Cn1ccnn1)C(=O)N1CCC=C(c2ccc3oc(C(=O)N(C)C)cc3c2)C1 [Example I-169] cannot be ordered by IC50: > 100 µM for the first, > 100 µM for the second.

First: CN(C)C(=O)c1cc2ccc(C3=CCCN(C(=O)c4ccc(N5CCOCC5)c(F)c4)C3)cc2[nH]1 [Example I-158]
Second: CN(C)C(=O)c1cc2ccc(C3=CCCN(C(=O)C4Cc5ccccc5CN4C=O)C3)cc2[nH]1 (stereo not drawn) [Example I-202]
The IC50 of the first is higher: > 100 µM for the first, 0.1 to 1 µM for the second. The second is the more potent here.

CN(C)C(=O)c1cc2ccc(C3=CCCN(C(=O)C(c4ccc(F)cc4)c4ccc(F)cc4)C3)cc2[nH]1 [Example I-160] and CN(C)C(=O)c1cc2ccc(C3=CCCN(C(=O)CCc4ccc(C#N)cc4)C3)cc2[nH]1 [Example I-162] cannot be ordered by IC50: > 100 µM for the first, > 100 µM for the second.

CN(C)C(=O)c1cc2cc(C3=CCCN(C(=O)CCn4ccnn4)C3)cc(CN3CC(N)C3)c2o1 [Example I-166] and CN(C)C(=O)c1cc2cc(C3=CCCN(C(=O)CCn4ccnn4)C3)cc(CN3CCNCC3)c2o1 [Example I-167] cannot be ordered by IC50: > 100 µM for the first, > 100 µM for the second.

CN(C)C(=O)c1cc2cc(C3=CCCN(C(=O)CCc4nncc5ccccc45)C3)ccc2o1 [Example I-168] and CN(C)C(=O)c1cc2cc(C3=CCCN(C(=O)CCc4nccc5ccccc45)C3)ccc2o1 [Example I-206] cannot be ordered by IC50: > 100 µM for the first, > 100 µM for the second.

CC(=O)N1Cc2ccccc2CC1C(=O)N1CCC=C(c2ccc3oc(C(=O)N(C)C)cc3c2)C1 (stereo not drawn) [Example I-170] and CCC(=O)N1Cc2ccccc2CC1C(=O)N1CCC=C(c2ccc3oc(C(=O)N(C)C)cc3c2)C1 (stereo not drawn) [Example I-188] cannot be ordered by IC50: > 100 µM for the first, > 100 µM for the second.

CN(C)C(=O)c1cc2cc(C3=CCCN(C(=O)C4Cc5c(cccc5-n5cccn5)CN4C=O)C3)ccc2o1 (stereo not drawn) [Example I-172] and CN(C)C(=O)c1cc2cc(C3=CCCN(C(=O)C4Cc5c(cccc5-c5ccc(O)cc5)CN4C=O)C3)ccc2o1 (stereo not drawn) [Example I-187] cannot be ordered by IC50: > 100 µM for the first, > 100 µM for the second.

First: COC(=O)CCC#Cc1cccc2c1CC(C(=O)N1CCC=C(c3ccc4oc(C(=O)N(C)C)cc4c3)C1)N(C=O)C2 (stereo not drawn) [Example I-175]
Second: COC(=O)CCC#Cc1cc(C2=CCCN(C(=O)C3Cc4ccccc4CN3C=O)C2)cc2cc(C(=O)N(C)C)oc12 (stereo not drawn) [Example I-184]
The IC50 of the first is lower: 1 to 10 µM for the first, 10 to 100 µM for the second.

CC(=O)NC(Cn1ccnn1)C(=O)N1CCC=C(c2ccc3oc(C(=O)N(C)C)cc3c2)C1 (stereo not drawn) [Example I-178] and CN(C)C(=O)c1cc2cc(C3=CCCN(C(=O)CCc4ccnnc4)C3)ccc2o1 [Example I-225] cannot be ordered by IC50: > 100 µM for the first, > 100 µM for the second.

CC(=O)NC(Cn1ccnn1)C(=O)N1CCC=C(c2ccc3oc(C(=O)N(C)C)cc3c2)C1 (stereo not drawn) [Example I-179] and NC(=O)c1cc2cc(C3=CCCN(C(=O)CCn4ccnn4)C3)ccc2o1 [Example I-213] cannot be ordered by IC50: > 100 µM for the first, > 100 µM for the second.

CC(=O)N1CCC(c2cccc3c2CC(C(=O)N2CCC=C(c4ccc5oc(C(=O)N(C)C)cc5c4)C2)N(C=O)C3)CC1 (stereo not drawn) [Example I-180] and CN(C)C(=O)c1cc2cc(C3=CCCN(C(=O)C4Cc5c(cccc5C5CCNCC5)CN4C=O)C3)ccc2o1 (stereo not drawn) [Example I-181] cannot be ordered by IC50: > 100 µM for the first, > 100 µM for the second.

CC(=O)N1Cc2ccccc2CC1C(=O)N1CCC=C(c2ccc3oc(C(=O)N(C)C)cc3c2)C1 (stereo not drawn) [Example I-182] and CCC(=O)N1Cc2ccccc2CC1C(=O)N1CCC=C(c2ccc3oc(C(=O)N(C)C)cc3c2)C1 (stereo not drawn) [Example I-189] cannot be ordered by IC50: > 100 µM for the first, > 100 µM for the second.

CN(C)C(=O)c1cc2cc(C3=CCCN(C(=O)CCn4ccnn4)C3)cc(CN3CCCCC3)c2o1 [Example I-185] and CNCc1cc(C2=CCCN(C(=O)CCn3ccnn3)C2)cc2cc(C(=O)N(C)C)oc12 [Example I-203] fall in the same range of IC50: 10 to 100 µM for the first, 10 to 100 µM for the second.

COC(=O)c1cnn(-c2cc(C3=CCCN(C(=O)CCn4ccnn4)C3)cc3cc(C(=O)N(C)C)oc23)c1 [Example I-186] and CC(=O)N1CCN(c2cc(C3=CCCN(C(=O)CCn4ccnn4)C3)cc3cc(C(=O)N(C)C)oc23)CC1 [Example I-207] cannot be ordered by IC50: > 100 µM for the first, > 100 µM for the second.

CC(=O)N1CCC(c2cc(C3=CCCN(C(=O)CCn4ccnn4)C3)cc3cc(C(=O)N(C)C)oc23)CC1 [Example I-190] and CN(C)C(=O)c1cc2cc(C3=CCCN(C(=O)CCn4ccnn4)C3)cc(C3CCNCC3)c2o1 [Example I-215] fall in the same range of IC50: 10 to 100 µM for the first, 10 to 100 µM for the second.

Compared with CN(C)C(=O)c1cc2cc(C3=CCCN(C(=O)CCn4ccnn4)C3)cc(N3CCNCC3)c2o1 [Example I-191], CN(C)C(=O)c1cc2cc(C3=CCCN(C(=O)CCn4ccnn4)C3)cc(-c3ccc(O)cc3)c2o1 [Example I-205] is lower in IC50: > 100 µM for the first, 0.1 to 1 µM for the second.

CN(C)C(=O)c1nc2cc(C3=CCCN(C(=O)CCn4ccnn4)C3)ccc2s1 [Example I-192] and CN(C)C(=O)c1nc2cc(C3=CCCN(C(=O)CCn4ccnn4)C3)ccc2o1 [Example I-214] cannot be ordered by IC50: > 100 µM for the first, > 100 µM for the second.

CC(=O)N1CCc2ccc(CC(=O)N3CCC=C(c4ccc5oc(C(=O)N(C)C)cc5c4)C3)cc2C1 [Example I-193] and CN(C)C(=O)c1cc2cc(C3=CCCN(C(=O)C4c5ccccc5CCN4C)C3)ccc2o1 (stereo not drawn) [Example I-208] cannot be ordered by IC50: > 100 µM for the first, > 100 µM for the second.

First: CN(C)C(=O)c1cc2ncc(C3=CCCN(C(=O)CCn4ccnn4)C3)cc2[nH]1 [Example I-194]
Second: CN(C)C(=O)c1cc2cc(C3=CCCN(C(=O)CCn4ccnn4)C3)cnc2[nH]1 [Example I-222]
The IC50 of the first is higher: > 100 µM for the first, 10 to 100 µM for the second. The second is the more potent here.

CN(C)C(=O)c1cc2ccc(C3=CCCN(C(=O)CCn4ccnn4)C3)nc2[nH]1 [Example I-196] and CN(C)C(=O)c1cc2cc(C3=CCCN(C(=O)CCn4ccnn4)C3)ncc2[nH]1 [Example I-224] fall in the same range of IC50: 10 to 100 µM for the first, 10 to 100 µM for the second.

CN(C)C(=O)c1nc2ccc(C3=CCCN(C(=O)C4Cc5ccccc5CN4C=O)C3)cc2[nH]1 (stereo not drawn) [Example I-198] and CN(C)C(=O)c1cc2cc(C3=CCCN(C(=O)C4Cc5ccccc5CN4C=O)C3)ccc2[nH]1 (stereo not drawn) [Example I-201] cannot be ordered by IC50: > 100 µM for the first, > 100 µM for the second.

CN(C)C(=O)c1nc2cc(C3=CCCN(C(=O)CCc4ccccn4)C3)ccc2[nH]1 [Example I-199] and CN(C)C(=O)c1cc2cc(C3=CCCN(C(=O)CCc4ccccn4)C3)ccc2[nH]1 [Example I-200] cannot be ordered by IC50: > 100 µM for the first, > 100 µM for the second.

CNc1ccc(-c2cc(C3=CCCN(C(=O)CCn4ccnn4)C3)cc3cc(C(=O)N(C)C)oc23)cc1 [Example I-204] and CN(C)C(=O)c1nc2ccc(C3=CCCN(C(=O)CCn4ccnn4)C3)cc2o1 [Example I-226] cannot be ordered by IC50: > 100 µM for the first, > 100 µM for the second.

Compared with CN(C)C(=O)c1cc2ccc(C3=CCCN(C(=O)CCc4ccccn4)C3)cc2[nH]1 [Example I-212], CN(C)C(=O)c1cc2cc(C3=CCCN(C(=O)CCc4cccnn4)C3)ccc2o1 [Example I-220] is higher in IC50: 10 to 100 µM for the first, > 100 µM for the second. The first is the more potent here.

CN(C)C(=O)c1cc2cc(C3=CCCN(C(=O)CCc4cnccn4)C3)ccc2o1 [Example I-216] and CN(C)C(=O)c1cc2cc(C3=CCCN(C(=O)CCn4nnc5ccccc54)C3)ccc2o1 [Example I-217] cannot be ordered by IC50: > 100 µM for the first, > 100 µM for the second.

CC(=O)NCc1ccccc1-c1ccccc1CC(=O)N1CCC=C(c2ccc3oc(C(=O)N(C)C)cc3c2)C1 [Example I-219] and CN(C)C(=O)c1cc2cc(C3=CCCN(C(=O)Cc4nc5ccccc5s4)C3)ccc2o1 [Example I-221] cannot be ordered by IC50: > 100 µM for the first, > 100 µM for the second.
